Laboratory results published in US20120309699A1, “COMPOUNDS HAVING ANTI-INFLAMMATORY ACTIVITY” (Consejo Superior de Investigaciones Cientificas (CSIC), priority 2009, published 2012).
Entries after “also recorded” stand apart in the source; their conditions may differ.

Assays:
[1] = target: COX-1 (Homo sapiens, UniProt P23219); details: cited from earlier work
[2] = system: enterobacteria; experiment: Microbiota counts in feces: enterobacteria; assay type: in vivo, mice; details: after administration of DSS; HED 10 mg
Description: (§1) A model for intestinal inflammation based on the administration of DSS (sodium dextran sulfate) to C57BL/6 mice was used. At the present time there is no consensus about which overall is the best model for experimental colitis. The DSS model has been widely used because it has clinical, morphological and analytical characteristics which up to a point are similar to those specific to patients with ulcerative colitis or Crohn's disease.
(§2) The in vivo inflammation test was carried out using duplicates separated by a number of months. In each test each group of animals (n=8) was fed a standard diet supplemented with 2.3 mg/day/kg (animal weight) of each of the compounds, depending upon the group. This dose assumes the ingestion of 0.05 mg/day (50 μg/day) per mouse (having a mean weight of 22 grams). This dose extrapolated to a human being is equivalent to 10 mg in an adult weighing 70 kg; using the formula HED (human equivalent dose)=animal dose in mg/kg×(animal weight kg/human weight in kg)^0.33. […]
(§3) • Monitoring of weight, food and drink ingestion. The mice in all groups were individually monitored, with weight, quantity of food ingested and water drunk each day being monitored throughout the experimental test. • Blood and water in feces. The water content of feces, as an indication of diarrhea, was evaluated using the difference in weight following evaporation in a stove. Blood was measured using reactive strips based on the guaiacol-peroxidase reaction (HealthCare Diagnosis Inc.). […] The reaction was measured using a scale from 0 (negative result) to 4 (most intense color change). • Length of colon. After sacrifice the colon was obtained from each mouse, extended and measured. […] This was evaluated by spectrophotometry at 460 nm using O-dianisidine reagent and hydrogen peroxide. The change in absorbance at 460 nm was monitored over 10 minutes in a V-630 spectrophotometer (Jasco, Tokyo, Japan). […] Levels of PGE2 were measured in colonic mucosa homogenates using an immunoenzyme method using a Cayman Chem. kit (USA). • “Antibody array”. […] The signal was detected by chemoluminescence. […]

[3] = system: pathogenic bacteria (E. coli O157, Salmonella and Listeria monocytogenes Scott A); experiment: Adhesion of pathogenic bacteria to HT-29 cell cultures; assay type: cell-based, human; details: HT-29, 25 μM/well, vs positive control C+
Description: (§4) We used two cell models for colon cancer to evaluate the anti-adhesion capacity of compounds derived from resveratrol against pathogenic bacteria in food: Caco-2 (a model frequently used to measure the adhesion of microorganisms) and HT-29 (a model frequently used to measure immune response to infections by enteropathogens). Caco-2 and HT-29 cells were grown in EMEM and DMEM respectively, for which 24 well plates were used at 37° C., 5% CO2, 95% air until a single layer of confluent epithelium formed (cell concentration per well 2×10^5 and 6×10^5 respectively). Pathogenic bacteria (E. coli O157, Salmonella and Listeria monocytogenes Scott A) were placed in contact with the various compounds derived from resveratrol for 1 hour and subsequently the bacteria together with the different compounds in a concentration of 25 μM/well were inoculated on the cell cultures, incubating the plates for 2 hours at 37° C., 5% CO2, 95% air. The plates were then washed 3 times with 1 ml of sterile PBS and 1 ml of distilled water with 20% of glycerol was added, and they were frozen at −70° C. to lyse the epithelial cells. […] Concentrations of the various derivatives tested were detected in the digestive tracts of experimental animals and therefore the test lay within the range of physiologically achievable concentrations.

[4] = Time of arrival and concentration of resveratrol in the colon of healthy mice; details: gastric probang, 84 mg/kg resveratrol
[5] = system: fibrinogen; experiment: Systemic inflammation marker fibrinogen (DSS model); assay type: in vivo, mice; details: vs DSS group; HED 10 mg
Description: as §1
(§5) The in vivo inflammation test was carried out using duplicates separated by a number of months. In each test each group of animals (n=8) was fed a standard diet supplemented with 2.3 mg/day/kg (animal weight) of each of the compounds, depending upon the group. This dose assumes the ingestion of 0.05 mg/day (50 μg/day) per mouse (having a mean weight of 22 grams). This dose extrapolated to a human being is equivalent to 10 mg in an adult weighing 70 kg; using the formula HED (human equivalent dose)=animal dose in mg/kg×(animal weight kg/human weight in kg)^0.33.
(§6) In each test the mice were fed for 3 weeks during which 1% DSS was included in their drink. The DSS was maintained for 8 days (and the same food as from the start). Then the DSS was withdrawn and the animals were allowed to recover for another 6 days (again with the same food).
(§7) • Monitoring of weight, food and drink ingestion. The mice in all groups were individually monitored, with weight, quantity of food ingested and water drunk each day being monitored throughout the experimental test. • Blood and water in feces. The water content of feces, as an indication of diarrhea, was evaluated using the difference in weight following evaporation in a stove. Blood was measured using reactive strips based on the guaiacol-peroxidase reaction (HealthCare Diagnosis Inc.). […] The reaction was measured using a scale from 0 (negative result) to 4 (most intense color change). • Length of colon. After sacrifice the colon was obtained from each mouse, extended and measured. […] This was evaluated by spectrophotometry at 460 nm using O-dianisidine reagent and hydrogen peroxide. The change in absorbance at 460 nm was monitored over 10 minutes in a V-630 spectrophotometer (Jasco, Tokyo, Japan). MPO activity was expressed as mU of activity/mg of fresh tissue, comparing the increase in absorbance with a standard straight line obtained using leukocyte myeloperoxidase (Sigma). • Prostaglandins in colonic mucosa. Levels of PGE2 were measured in colonic mucosa homogenates using an immunoenzyme method using a Cayman Chem. kit (USA). • “Antibody array”. […] The signal was detected by chemoluminescence. […] Signal intensities (densitometry) were analyzed using ScanAlyze software. […] The changes in cytokine levels were expressed as mean±SD in arbitrary density units. […]

[6] = system: C57BL/6 mice; experiment: DSS (sodium dextran sulfate) model for intestinal inflammation: colon length, weight, DAI, appearance, colonic architecture; assay type: in vivo; details: after 1% DSS for 8 days; HED 10 mg
Description: as §1, §5, §6
Groups included in the investigation: control (standard food), control-DSS, DSS-resveratrol (RES), DSS-piceid (PIC), DSS-resveratrol-diglucoside (DIGLUC), DSS-piceid-butyrate (BUT), DSS-piceid-octanoate (OCT).
• Monitoring of weight, food and drink ingestion. The mice in all groups were individually monitored, with weight, quantity of food ingested and water drunk each day being monitored throughout the experimental test. • Blood and water in feces. The water content of feces, as an indication of diarrhea, was evaluated using the difference in weight following evaporation in a stove. Blood was measured using reactive strips based on the guaiacol-peroxidase reaction (HealthCare Diagnosis Inc.). The samples were diluted 1:50 in saline solution and applied to the reactive strips. After 60 sec the color was compared with the template provided by the manufacturer. The reaction was measured using a scale from 0 (negative result) to 4 (most intense color change). • Length of colon. After sacrifice the colon was obtained from each mouse, extended and measured. Samples of the colonic mucosa for various tests mentioned below were obtained by scraping. • Myeloperoxidase activity in colonic mucosa. This was evaluated by spectrophotometry at 460 nm using O-dianisidine reagent and hydrogen peroxide. The change in absorbance at 460 nm was monitored over 10 minutes in a V-630 spectrophotometer (Jasco, Tokyo, Japan). MPO activity was expressed as mU of activity/mg of fresh tissue, comparing the increase in absorbance with a standard straight line obtained using leukocyte myeloperoxidase (Sigma). • Prostaglandins in colonic mucosa. Levels of PGE2 were measured in colonic mucosa homogenates using an immunoenzyme method using a Cayman Chem. kit (USA). • “Antibody array”. The “antibody array” kit from RayBiotech (“RayBio Mouse Inflammation Antibody Array 1”) was used to determine cytokines in colonic tissue samples. The “RayBio Mouse inflammation antibody arrays” are a fast and accurate system for determining the expression profile of multiple cytokines (in this case 40) in a very sensitive way. The sensitivity is 100 times greater than that of the ELISA method. The measurement was made in duplicate following the manufacturer's instructions. Membranes were blocked with blocking buffer and then incubated with 300 μg of protein for 2 hours. Finally the membranes were incubated with a cocktail of antibodies conjugated with biotin and then radish peroxidase marked with streptavidin. The signal was detected by chemoluminescence. Images were captured using a CCD camera fitted to a Biorad Chemidoc XRS imaging station. Signal intensities (densitometry) were analyzed using ScanAlyze software. […]

[7] = system: E. coli; experiment: Microbiota counts in feces: E. coli; assay type: in vivo, mice; details: after administration of DSS; HED 10 mg
Description: as §1, §2, §3

[8] = system: pathogenic bacteria (E. coli O157, Salmonella and Listeria monocytogenes Scott A); experiment: Adhesion of pathogenic bacteria to Caco-2 cell cultures; assay type: cell-based, human; details: Caco-2, 25 μM/well, vs positive control C+
Description: as §4

[9] = system: bifidobacteria; experiment: Microbiota counts in feces: bifidobacteria; assay type: in vivo, mice; details: HED 10 mg
Description: as §1, §5, §6, §7

[10] = system: haptoglobin; experiment: Systemic inflammation marker haptoglobin (DSS model); assay type: in vivo, mice; details: vs DSS group; HED 10 mg
Description: as §1, §5, §6, §7

[11] = system: COX-2; details: see ES2266271; cited from earlier work

Chain of COX-1 (P23219 24-599): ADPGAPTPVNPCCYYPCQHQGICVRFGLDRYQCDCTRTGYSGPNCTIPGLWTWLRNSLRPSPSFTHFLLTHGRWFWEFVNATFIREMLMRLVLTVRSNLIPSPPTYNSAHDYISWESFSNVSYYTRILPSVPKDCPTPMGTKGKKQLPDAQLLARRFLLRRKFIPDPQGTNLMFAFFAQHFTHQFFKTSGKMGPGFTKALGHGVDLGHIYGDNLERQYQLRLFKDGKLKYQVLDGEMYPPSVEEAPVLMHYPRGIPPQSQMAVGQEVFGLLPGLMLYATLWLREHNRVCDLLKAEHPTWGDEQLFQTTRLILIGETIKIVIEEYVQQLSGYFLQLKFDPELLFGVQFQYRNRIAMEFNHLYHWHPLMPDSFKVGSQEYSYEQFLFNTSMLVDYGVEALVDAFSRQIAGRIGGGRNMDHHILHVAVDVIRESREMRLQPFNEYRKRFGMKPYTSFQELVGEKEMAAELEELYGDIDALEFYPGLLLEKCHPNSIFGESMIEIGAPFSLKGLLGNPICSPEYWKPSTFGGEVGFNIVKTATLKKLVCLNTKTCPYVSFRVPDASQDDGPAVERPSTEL

SMILES | Enzyme activity of COX-1 [1] | Enterobacteria count in feces [2] | Adhesion of pathogenic bacteria to intestinal epithelium [3] | Time of maximum resveratrol in the colon [4] | Blood fibrinogen levels [5] | General appearance of the mice [6] | E. coli count in feces [7] | Adhesion of pathogenic bacteria to the intestinal epithelium [8] | Bifidobacteria count in feces ([9]; after administration of DSS) | Blood haptoglobin levels [10] | Transcription of COX-2 [11] | Bifidobacteria count in feces ([9]; 3 weeks of supplemented diet, prior to DSS)
Oc1ccc(/C=C/c2cc(O)cc(O)c2)cc1 [RES, trans-resveratrol, reference compound] | inhibits the enzyme activity of COX-1 | clear reduction | reduced the adhesion | around 5 hours | clear tendency to improvement | OCT (D)≈BUT (C)>>RES≈DIGLUC≈PIC (B)>>control-DSS (A); also recorded: better appearance than the control-DSS | clear reduction | reduced the adhesion | slightly higher counts | clear tendency to improvement | inhibits the transcription of COX-2 | 
OC[C@H]1O[C@@H](Oc2cc(O)cc(/C=C/c3ccc(O)cc3)c2)[C@H](O)[C@@H](O)[C@@H]1O [PIC, resveratrol-3-O-glucoside, reference compound] |  |  |  |  |  | OCT (D)≈BUT (C)>>RES≈DIGLUC≈PIC (B)>>control-DSS (A) |  |  |  |  |  | 
OC[C@H]1O[C@@H](Oc2cc(/C=C/c3ccc(O)cc3)cc(O[C@@H]3O[C@H](CO)[C@@H](O)[C@H](O)[C@H]3O)c2)[C@H](O)[C@@H](O)[C@@H]1O [DIGLUC, trans-resveratrol-3,5-di-O-β-D-glucopyranoside] |  |  |  |  | most notable differences | OCT (D)≈BUT (C)>>RES≈DIGLUC≈PIC (B)>>control-DSS (A) |  |  |  | clear tendency to improvement |  | highest count
